The source of these data is US20230058412A1, “Carbohydrate-Modified Particles and Particulate Formulations for Modulating an Immune Response” (NORTHWESTERN UNIVERSITY, priority 2015, published 2023).

Assay [1] deals with RAW 264.7 macrophage. Conditions: cited from earlier work.
Assay [2] deals with RAW264.7 cells. Kind of assay: High-throughput screen of cytokine production by LPS-stimulated RAW264.7 macrophages. Type of assay: cell-based.
From the text: Since macrophages are one immune cell thought to be important in immune responses, including tolerance through their production of a key immune mediator called Interleukin-10 (IL-10), we developed an in vitro approach to screening the effects of EDC-cells versus PLGA nanoparticles for their effects on IL-10 production.
We examined the proinflammatory response (IL-6) or anti-inflammatory response (IL-10), as outlined in FIG. 2.
Using the strategy in FIG. 2, we calculated the greatest fold change for cytokine production over a therapeutically relevant dose curve of 0.1, 1, 10, and 100 μM.
Using activated RAW macrophages we developed a high throughput screening method to identify tolerogenic signals.
In support of our overarching concept that ECDI-fixed NPs are lacking signals for induction of tolerogenic signals, we have examined the ability to modulate cytokine responses in a macrophage cell line (RAW264.7).
In assay [3] the target is T1, CD209 (Homo sapiens, UniProt Q9NNX6).
T1 sequence (Q9NNX6 1-404): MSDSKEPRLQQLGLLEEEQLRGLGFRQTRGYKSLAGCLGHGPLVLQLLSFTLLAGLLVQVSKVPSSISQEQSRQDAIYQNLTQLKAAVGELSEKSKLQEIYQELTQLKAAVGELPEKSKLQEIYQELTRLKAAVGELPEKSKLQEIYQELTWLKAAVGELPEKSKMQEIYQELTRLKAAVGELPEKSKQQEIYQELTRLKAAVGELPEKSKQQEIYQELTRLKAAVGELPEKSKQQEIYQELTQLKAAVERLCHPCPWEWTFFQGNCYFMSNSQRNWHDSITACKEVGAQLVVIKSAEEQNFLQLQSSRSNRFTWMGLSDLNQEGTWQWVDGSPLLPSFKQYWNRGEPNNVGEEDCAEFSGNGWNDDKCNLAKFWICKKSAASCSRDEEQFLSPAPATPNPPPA
Conditions: cited from earlier work.

Assay [4] has as its system allograft. Conditions: in vivo; cited from earlier work.
Assay [5] concerns the target T2, Mer (Homo sapiens, UniProt Q12866).
T2 sequence (Q12866 21-999): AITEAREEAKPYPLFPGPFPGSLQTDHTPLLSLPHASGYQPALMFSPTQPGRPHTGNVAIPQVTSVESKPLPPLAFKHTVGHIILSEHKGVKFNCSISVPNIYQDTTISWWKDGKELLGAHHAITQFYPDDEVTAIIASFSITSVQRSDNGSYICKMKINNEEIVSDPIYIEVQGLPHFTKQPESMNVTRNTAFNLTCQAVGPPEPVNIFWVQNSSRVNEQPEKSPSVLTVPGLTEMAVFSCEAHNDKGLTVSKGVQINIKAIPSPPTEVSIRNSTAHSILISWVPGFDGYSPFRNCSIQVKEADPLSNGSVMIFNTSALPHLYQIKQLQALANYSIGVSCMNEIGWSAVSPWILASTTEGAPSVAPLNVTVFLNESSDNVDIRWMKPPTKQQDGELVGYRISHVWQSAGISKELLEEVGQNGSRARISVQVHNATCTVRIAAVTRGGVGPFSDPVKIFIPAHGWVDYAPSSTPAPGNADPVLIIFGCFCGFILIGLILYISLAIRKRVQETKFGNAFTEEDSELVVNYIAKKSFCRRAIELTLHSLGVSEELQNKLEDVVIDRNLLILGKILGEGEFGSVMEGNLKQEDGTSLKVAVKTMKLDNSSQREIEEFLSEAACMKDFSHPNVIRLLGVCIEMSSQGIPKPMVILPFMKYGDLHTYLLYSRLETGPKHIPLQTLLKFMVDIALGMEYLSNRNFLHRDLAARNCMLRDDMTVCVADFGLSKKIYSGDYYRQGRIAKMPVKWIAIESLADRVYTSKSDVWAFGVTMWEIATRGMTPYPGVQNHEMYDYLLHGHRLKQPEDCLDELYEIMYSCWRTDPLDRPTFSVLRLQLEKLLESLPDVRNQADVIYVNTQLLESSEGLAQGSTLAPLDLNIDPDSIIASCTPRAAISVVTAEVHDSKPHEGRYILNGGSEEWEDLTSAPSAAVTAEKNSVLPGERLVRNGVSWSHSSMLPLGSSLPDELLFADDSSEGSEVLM
As to conditions: exogenous ligand; cited from earlier work.

Where [6] appears, read: macrophages stimulated with LPS.

With `CCCCCC(=O)CC(=O)/C=C/c1ccc(O)c(OC)c1` [6-dehydrogingerdione], in assay [1], the “inflammatory response (decrease of pro-inflammatory cytokines, increase in IL-10/TGF13)” value is reported as “inhibit this inflammatory response”.
As to `C[C@H](O)[C@@H](O)[C@@H](O)[C@H](O)C=O` [Fucose, L-Fucose], the “tolerogenic signal (increase IL-10 secretion and/or decrease IL-6 secretion versus baseline)” value in assay [2] (macrophages activated with LPS, with or without ECDI-SP, dose curve 0.1, 1, 10, 100 μM) is given as “exhibiting a tolerogenic signal”.
As to `CC(=O)N[C@H]1[C@H](O[C@H]2[C@@H](O)[C@@H](CO)O[C@@H](O[C@H]3[C@H](O)[C@@H](O)C(O)O[C@@H]3CO)[C@@H]2O)O[C@H](CO)[C@@H](O[C@@H]2O[C@H](CO)[C@H](O)[C@H](O)[C@H]2O)[C@@H]1O[C@@H]1O[C@@H](C)[C@@H](O)[C@@H](O)[C@@H]1O` (some centres unmarked) [LNFPIII, Lacto-N-fuconentaose III], the “binding and signalling through CD209” value in assay [3] was “binds and signals through CD209”. Also, the allograft survival entry in assay [4] is reported as “prolong allograft survival”.
As for `CC(=O)N[C@H]1C(O)O[C@H](CO)[C@@H](O[C@@H]2O[C@H](CO)[C@H](O)[C@H](O)[C@H]2O)[C@@H]1O[C@@H]1O[C@@H](C)[C@@H](O)[C@@H](O)[C@@H]1O` (some centres unmarked) [Lewis^x antigen], in assay [2] (setting [6]), the IL-6 production entry is “suppression of IL-6 production” and the IL-10 production result is “enhancement of IL-10”.
With `Nc1ncnc2c1ncn2[C@@H]1O[C@H](CO)[C@@H](O)[C@H]1O` [adenosine], in assay [1], the “inflammatory response (decrease of pro-inflammatory cytokines, increase in IL-10/TGF13)” value is given as “inhibit this inflammatory response”.
Turning to `C[C@H]1CC[C@@H]2N(C1)C[C@H]1[C@@H]3C[C@H]4[C@@H](C[C@H](O)[C@H]5C[C@@H](O)CC[C@@]54C)[C@@H]3CC[C@@H]1[C@]2(C)O` [peimine], in assay [1], the “inflammatory response (decrease of pro-inflammatory cytokines, increase in IL-10/TGF13)” value is “inhibit this inflammatory response”.
`C[C@H]1O[C@@H](O[C@H]2CC[C@@]3(C)[C@@H](CC[C@]4(C)[C@@H]3C=C[C@]35OC[C@@]6(CCC(C)(C)C[C@H]63)[C@@H](O)C[C@]54C)[C@]2(C)CO)[C@H](O)[C@@H](O[C@@H]2O[C@H](CO)[C@@H](O)[C@H](O)[C@H]2O)[C@H]1O` [saikosaponin A]: in assay [1], the “inflammatory response (decrease of pro-inflammatory cytokines, increase in IL-10/TGF13)” value was “inhibit this inflammatory response”.
Consider “GAS6: Growth Arrest-Specific 6, cognate ligand for TAM RTKs”, for which the “tyrosine autophosphorylation / signalling of Mer” value in assay [5] was “stimulate tyrosine autophosphorylation of both Mer and Ax1”.
With Protein S: cognate ligand for TAM RTKs, the “tyrosine autophosphorylation / signalling of Mer” value in assay [5] is “only capable of signaling through Mer”.
